Test results taken from patent US10287269B2, “Pyrazolyl pyrimidinone compounds as PDE2 inhibitors” (Merck Sharp & Dohme Corp., priority 2015, dated 2019).

Assays:
other PDE isoforms = conditions: reported in Brandon et al. 2007; cited from earlier work
[1] = reported in Brandon et al. 2007; cited from earlier work
human PDE2A1 = target: T1, human PDE2A1 (Homo sapiens, UniProt O00408); experiment: PDE2 IMAP FP inhibition assay, human enzyme (PDE selectivity panel format); type: biochemical; conditions: Lab A; read-out: Human PDE2 Ki (nM) Lab A
T1 construct: GST; purchased BPS Bioscience (San Diego, Calif.) 60020; host or cells: insect cells
T1 sequence (O00408 1-920 isoform O00408-2): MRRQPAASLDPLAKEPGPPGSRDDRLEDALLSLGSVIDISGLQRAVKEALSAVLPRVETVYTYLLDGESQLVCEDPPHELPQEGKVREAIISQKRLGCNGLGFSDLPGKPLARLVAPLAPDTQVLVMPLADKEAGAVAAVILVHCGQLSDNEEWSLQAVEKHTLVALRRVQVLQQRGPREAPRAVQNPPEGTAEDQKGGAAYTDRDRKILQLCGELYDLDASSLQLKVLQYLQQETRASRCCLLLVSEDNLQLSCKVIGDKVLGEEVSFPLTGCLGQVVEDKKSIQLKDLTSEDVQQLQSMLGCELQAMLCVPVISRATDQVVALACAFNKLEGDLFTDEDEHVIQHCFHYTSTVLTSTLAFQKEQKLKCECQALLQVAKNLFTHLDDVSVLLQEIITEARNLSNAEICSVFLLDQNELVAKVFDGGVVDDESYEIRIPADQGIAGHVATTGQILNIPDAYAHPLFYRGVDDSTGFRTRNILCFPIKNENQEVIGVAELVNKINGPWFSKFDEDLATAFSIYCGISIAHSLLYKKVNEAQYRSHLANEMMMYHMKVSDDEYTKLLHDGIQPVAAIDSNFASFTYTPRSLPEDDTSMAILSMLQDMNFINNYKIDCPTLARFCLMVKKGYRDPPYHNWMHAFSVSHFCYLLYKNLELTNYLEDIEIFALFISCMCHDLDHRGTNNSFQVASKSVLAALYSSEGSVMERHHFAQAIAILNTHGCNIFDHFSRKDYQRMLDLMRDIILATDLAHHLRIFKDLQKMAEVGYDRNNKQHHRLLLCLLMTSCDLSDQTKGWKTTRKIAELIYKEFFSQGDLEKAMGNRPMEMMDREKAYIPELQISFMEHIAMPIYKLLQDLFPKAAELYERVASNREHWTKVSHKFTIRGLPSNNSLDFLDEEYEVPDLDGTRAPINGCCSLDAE
Experimental: Selectivity for PDE2, as compared to other PDE families, was assessed using the IMAP® technology. Human PDE10A2 enzyme was prepared from cytosolic fractions of transiently transfected HEK cells. All other PDE's were GST Tag human enzyme expressed in insect cells and were obtained from BPS Bioscience (San Diego, Calif.): PDE1A (Cat#60010), human PDE2A1 (Cat#60020), PDE3A (Cat#60030), PDE4A1A (Cat#60040), PDE5A1 (Cat#60050), PDE6C (Cat#60060), PDE7A (Cat#60070), PDE8A1 (Cat#60080), PDE9A2 (Cat#60090), PDE11A4 (Cat#60110).
Assays for PDE 1 through 11 were performed in parallel at room temperature in 384-well microtiter plates with an incubation volume of 20.2 μL. Solutions of test compounds were prepared in DMSO and serially diluted with DMSO to yield 30 μL of each of ten solutions differing by 3-fold in concentration, at 32 serial dilutions per plate. […] A Labcyte POD 810 (Labcyte, Sunnyvale, Calif.) was used to dispense 200 nL from each well of the titration plate to make eleven copies of the assay plate for each titration, one copy for each PDE enzyme. A solution of each enzyme (dilution from aliquots, sufficient to produce 20% substrate conversion) and a separate solution of FAM-labeled cAMP or FAM-labeled cGMP from Molecular Devices (Sunnyvale, Calif., product # R7506 or cGMP#R7508), at a final concentration of 50 nM were made in the assay buffer (10 mM Tris HCl, pH 7.2, 10 mM MgCl2, 0.05% NaN3 0.01% Tween-20, and 1 mM DTT). Note that the substrate for PDE2 is 50 nM FAM cAMP containing 1000 nM of cGMP. The enzyme and the substrate were then added to the assay plates in two consecutive additions of 10 μL and then shaken to mix. The reaction was allowed to proceed at room temperature for 60 minutes. A binding solution was then made from the kit components, comprised of 80% Solution A, 20% Solution B and binding reagent at a volume of 1/600 the total binding solution. The enzymatic reaction was stopped by addition of 60 μL of the binding solution to each well of the assay plate. The plates were sealed and shaken for 10 seconds. The plates were incubated at room temperature for one hour, then the parallel and perpendicular fluorescence was measured using a Tecan Genios Pro plate reader (Tecan, Switzerland). The apparent inhibition constants for the compounds against all 11 PDE's was determined from the parallel and perpendicular fluorescent readings as described for PDE10 FP assay using the following apparent KM values for each enzyme and substrate combination: PDE1A (FAM cGMP) 70 nM, human PDE2A1 (FAM cAMP) 10,000 nM, PDE3A (FAM cAMP) 50 nM, PDE4A1A (FAM cAMP) 1500 nM, PDE5A1 (FAM cGMP) 400 nM, PDE6C (FAM cGMP) 700 nM, PDE7A (FAM cAMP) 150 nM, PDE8A1 (FAM cAMP) 50 nM, PDE9A2 (FAM cGMP) 60 nM, PDE10A2 (FAM cAMP) 150 nM, PDE11A4 (FAM cAMP) 1000 nM. The intrinsic PDE2 inhibitory activity of a compound which may be used in accordance with the present invention may be determined by these assays. […]

SMILES | potency at other PDE isoforms (other PDE isoforms) | brain penetration [1] | Ki (human PDE2A1)
COc1ccc(Cc2nn3c([C@@H](CCCc4ccccc4)[C@@H](C)O)nc(C)c3c(=O)[nH]2)cc1OC [Bay 60-7550] | significant potency | limited brain penetration | 
CCc1ccc(C(CO)n2cc(-c3cc(=O)[nH]c(C)n3)cn2)c(F)c1 (single isomer, unassigned) [Example 111, (R)- or (S)-6-(1-(1-(4-ethyl-2-fluorophenyl)-2-hydroxyethyl)-1H-pyrazol-4-yl)-2-methylpyrimidin-4(3H)-one] |  |  | 42.5 nM
Cc1nc(-c2cnn(C(C)c3ccc(C4CC4)cc3Cl)c2)cc(=O)[nH]1 (single isomer, unassigned) [Example 108, (S)- or (R)-6-(1-(1-(2-chloro-4-cyclopropylphenyl)ethyl)-1H-pyrazol-4-yl)-2-methylpyrimidin-4(3H)-one] |  |  | 358 nM
CCc1ccc(C(CO)c2cnn(-c3cc(=O)[nH]c(C)n3)c2)c(Cl)c1 (single isomer, unassigned) [Example 121, (S)- or (R)-6-(4-(1-(2-chloro-4-ethylphenyl)-2-hydroxyethyl)-1H-pyrazol-1-yl)-2-methylpyrimidin-4(3H)-one] |  |  | 8.4 nM
CCc1ccc(C(CO)n2cc(-c3cc(=O)[nH]c(C)n3)cn2)c(F)c1 (single isomer, unassigned) [Example 112, (S)- or (R)-6-(1-(1-(4-ethyl-2-fluorophenyl)-2-hydroxyethyl)-1H-pyrazol-4-yl)-2-methylpyrimidin-4(3H)-one] |  |  | 438 nM
